# Values of other authors as cited in patent publication US20070196500A1, “Composition for oral administration of tamsulosin hydrochloride and controlled release granule formulation comprising same” (priority 2004, published 2007).
# Structures can show the parent of a compound that is named as a salt.
compound,measurement,value
"CCOc1ccccc1OCCN[C@H](C)Cc1ccc(OC)c(S(N)(=O)=O)c1 [Tamsulosin hydrochloride, tamsulosin hydrochloride]",water-solubility,low water-solubility
